From paper PMC3726336, “Product inhibition of cellulases studied with ^14C-labeled cellulose substrates” (Biotechnology for Biofuels, 2013)

Key:
GH7 CBHs = tested on: GH7 CBHs; design: method as in PMID 18512263; conditions: MUL as substrate of the GH7 CBHs; cited from earlier work
TrCel5A = molecular target: T1, TrCel5A (Trichoderma reesei, UniProt P07982); design: method as in PMID 23410927; conditions: cited from earlier work
T1 construct: TrCel7B, TrCel5A, and TrCel12A were purified from the culture filtrate of Tr QM 9414; made in house; host or cells: Trichoderma reesei QM 9414 culture filtrate (native producer)

TrCel6A = molecular target: T2, TrCel6A (Trichoderma reesei, UniProt P07987); assay: Inhibition of hydrolysis of 14C-BMCC by TrCel6A; format: biochemical; conditions: TrCel6A, 14C-BMCC, 50°C
T2 construct: TrCel6A was purified from the culture filtrate of Tr QM 9414 as described previously; made in house; host or cells: Trichoderma reesei QM 9414 culture filtrate (native producer)
From the text: (§1) Here, we characterized the cellobiose and glucose inhibition of TrCel6A and its thermophilic counterpart, CtCel6A [9, 63]. First, the cellobiose inhibition of the synergistic hydrolysis of ^14C-BC by TrCel6A and TrCel5A was studied (Figure 7A). As TrCel6A was less sensitive to cellobiose inhibition than TrCel7A, the contribution of the cellobiose released during hydrolysis was not significant, and an average (DCB/DCB=0) over all time points was used in plotting (DCB/DCB=0) versus [cellobiose] (Figure 7D). No significant systematic variation of DCB/DCB=0 depending on hydrolysis time was observed. As in the case of GH7 CBHs, the IC50 value was found using Equations 5 and 6. Because the IC50 value for synergistic hydrolysis (Table 3) was of the same order as the apparent Ki value reported for TrCel5A [31], we further tested the inhibition of individual TrCel6A. BC is not a good substrate for TrCel6A, but its acid-treated derivative, BMCC, is readily degraded by the enzyme. Therefore, we prepared ^14C-BMCC by the heterogeneous acid hydrolysis of ^14C-BC. […]
(§2) GH6 CBHs were assessed by observing the hydrolysis of ^14C-BMCC. ^14C-BMCC (0.25 g l^-1) was incubated (with shaking at 350 rpm) with CBH (0.25 μM) and N188BG (0.06 μM) in 50 mM sodium acetate buffer, pH 5.0, containing BSA (0.1 g l^-1). […]

CtCel6A = CtCel6A (Chaetomium thermophilum, UniProt G0SD43); assay: Inhibition of hydrolysis of 14C-BMCC by CtCel6A; format: biochemical; conditions: CtCel6A, 14C-BMCC, 50°C
From the text: as §1, §2

T2 sequence (P07987 25-471): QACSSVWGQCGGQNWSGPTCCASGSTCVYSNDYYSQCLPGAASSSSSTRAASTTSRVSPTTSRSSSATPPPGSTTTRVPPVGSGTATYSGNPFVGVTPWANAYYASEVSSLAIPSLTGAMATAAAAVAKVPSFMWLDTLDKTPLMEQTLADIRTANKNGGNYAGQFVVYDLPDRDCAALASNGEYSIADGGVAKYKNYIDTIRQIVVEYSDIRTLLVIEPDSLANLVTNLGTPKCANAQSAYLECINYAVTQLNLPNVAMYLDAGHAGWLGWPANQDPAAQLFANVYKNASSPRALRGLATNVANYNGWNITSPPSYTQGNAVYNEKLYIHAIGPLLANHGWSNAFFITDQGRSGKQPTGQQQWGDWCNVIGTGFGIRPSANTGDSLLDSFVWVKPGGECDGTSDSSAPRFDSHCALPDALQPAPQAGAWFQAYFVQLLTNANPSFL
Chain of CtCel6A (G0SD43 entry or part of it): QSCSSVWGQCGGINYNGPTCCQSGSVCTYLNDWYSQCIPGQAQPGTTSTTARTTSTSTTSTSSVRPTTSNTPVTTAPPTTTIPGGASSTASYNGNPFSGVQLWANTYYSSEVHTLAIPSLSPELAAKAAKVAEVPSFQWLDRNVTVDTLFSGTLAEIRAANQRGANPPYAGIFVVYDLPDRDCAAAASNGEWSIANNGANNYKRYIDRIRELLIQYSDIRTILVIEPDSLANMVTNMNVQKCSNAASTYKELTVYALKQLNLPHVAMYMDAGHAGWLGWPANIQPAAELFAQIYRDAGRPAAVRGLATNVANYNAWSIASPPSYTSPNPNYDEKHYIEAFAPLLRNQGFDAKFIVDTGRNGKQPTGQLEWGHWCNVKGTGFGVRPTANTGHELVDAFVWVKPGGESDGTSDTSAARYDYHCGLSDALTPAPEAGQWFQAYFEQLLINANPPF
T1 sequence (P07982 22-418): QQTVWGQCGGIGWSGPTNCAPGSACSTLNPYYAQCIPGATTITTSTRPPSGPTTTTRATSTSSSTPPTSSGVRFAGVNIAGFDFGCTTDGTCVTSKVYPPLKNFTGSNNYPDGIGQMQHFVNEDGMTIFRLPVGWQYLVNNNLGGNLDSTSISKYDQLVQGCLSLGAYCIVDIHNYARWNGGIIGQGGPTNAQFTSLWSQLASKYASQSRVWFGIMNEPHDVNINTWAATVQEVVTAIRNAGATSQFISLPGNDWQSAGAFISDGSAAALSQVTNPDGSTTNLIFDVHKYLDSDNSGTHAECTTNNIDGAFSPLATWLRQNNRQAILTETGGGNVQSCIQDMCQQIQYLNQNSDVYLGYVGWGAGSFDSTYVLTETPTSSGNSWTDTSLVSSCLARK

Row | SMILES | Km (GH7 CBHs) [µM] | inhibition by glucose (TrCel5A) | times weaker inhibitor than cellobiose (TrCel6A) | times weaker inhibitor than cellobiose (CtCel6A)
1 | Cc1cc(=O)oc2cc(O[C@@H]3O[C@H](CO)[C@@H](O[C@@H]4O[C@H](CO)[C@H](O)[C@H](O)[C@H]4O)[C@H](O)[C@H]3O)ccc12 [MUL, 4-methylumbelliferyl-β-lactoside] | ~300 | – | – | –
2 | OC[C@H]1OC(O)[C@H](O)[C@@H](O)[C@@H]1O (stereo partly shown) [glucose, Glucose] | – | not significantly inhibited | approximately 10 times | approximately 10 times
